The results in this text go back to the NIST ThermoML archive (doi:10.1016/j.tca.2015.06.009).

Structures are written as SMILES. Numbers after ± are expanded uncertainties.

Data set [1] in a line: isobaric coefficient of expansion. Conditions: 300 K; 101.33 kPa; Crystal; Photoacoustics.
The conditions of data set [2]: 300 K; 101.33 kPa; Crystal; Photoacoustics.

Consider `[Al]` [aluminum], for which the “isobaric coefficient of expansion” value in data set [1] was 1.5e-05 ± 1e-06 1/K. Besides, the thermal diffusivity in data set [2] stood at 9.37e-05 ± 1.6e-06 m2/s.

With `[Cu]` [copper], the “isobaric coefficient of expansion” value in data set [1] was 1.3e-05 ± 1e-06 1/K. Besides, the thermal diffusivity in data set [2] was 0.000116 ± 4e-06 m2/s.

On to `[Ag]` [silver], for which, in data set [1], the “isobaric coefficient of expansion” value is 1.4e-05 ± 1e-06 1/K. For the same molecule, the thermal diffusivity in data set [2] was determined as 0.000174 ± 1.2e-05 m2/s.
